Reference: article PMC9116245, “New 1,2,3-triazole linked ciprofloxacin-chalcones induce DNA damage by inhibiting human topoisomerase I& II and tubulin polymerization” (Journal of Enzyme Inhibition and Medicinal Chemistry, 2022)

What was measured:
Experiment in all cases: NCI one-dose screen
Format in all cases: cell-based
EKVX = settings: Homo sapiens, read-out: Growth Percent
Experimental: (§1) For screening of anticancer properties, all the developed compounds were chosen by the (NCI) for in-vitro antitumor evaluation. The assay was carried out using 59 human cancer cell lines obtained from nine tumour subpanels (breast, ovarian, melanoma, leukaemia, renal, CNS, lung, prostate, and colon cancer cell lines). Compounds were assessed at a 10 µM concentration. […] Also, hybrids 4a, 4b, 4e, 4i and 4j produced significant anti-proliferative effect in several cancer cells, particularly in leukaemia (RPMI-8226) and colon (HCT116) cells with growth percent of 47.87, −14.59, −24.56, −24.42, −15.84, −9.74, −53.36, −10.26, −31.29, and −39.51%, respectively.
(§2) The method description for NCI anticancer screening is provided in detail in the standard NCI-60 testing protocol.

NCI-H460 = settings: Homo sapiens; NCI-H460, 10 µM; read-out: Growth Percent
Experimental: as §1, §2

MDA-MB-468 = settings: Homo sapiens; MDA-MB-468, 10 µM; read-out: Growth Percent
Experimental: as §1, §2

NCI/ADR-RES = settings: Homo sapiens, read-out: Growth Percent
Experimental: as §1, §2

HT29 = settings: Homo sapiens, HT-29; HT29, 10 µM; read-out: Growth Percent
Experimental: as §1, §2

SNB-75 = settings: Homo sapiens; SNB-75, 10 µM; read-out: Growth Percent
Experimental: as §1, §2

SR = settings: Homo sapiens, read-out: Growth Percent
Experimental: as §1, §2

NCI-H522 = settings: Homo sapiens; NCI-H522, 10 µM; read-out: Growth Percent
Experimental: as §1, §2

SF-295 = settings: Homo sapiens; SF-295, 10 µM; read-out: Growth Percent
Experimental: as §1, §2

COLO 205 = settings: Homo sapiens; COLO 205, 10 µM; read-out: Growth Percent
Experimental: as §1, §2

HCT-15 = settings: Homo sapiens; HCT-15, 10 µM; read-out: Growth Percent
Experimental: as §1, §2

SK-MEL-5 = settings: Homo sapiens; SK-MEL-5, 10 µM; read-out: Growth Percent
Experimental: as §1, §2

SN12C = settings: Homo sapiens, read-out: Growth Percent
Experimental: as §1, §2

TK-10 = settings: Homo sapiens; TK-10, 10 µM; read-out: Growth Percent
Experimental: as §1, §2

DU-145 = settings: Homo sapiens; DU-145, 10 µM; read-out: Growth Percent
Experimental: as §1, §2

SF-539 = settings: Homo sapiens; SF-539, 10 µM; read-out: Growth Percent
Experimental: as §1, §2

NCI-H23 = settings: Homo sapiens; NCI-H23, 10 µM; read-out: Growth Percent
Experimental: as §1, §2

SK-MEL-2 = settings: Homo sapiens; SK-MEL-2, 10 µM; read-out: Growth Percent
Experimental: as §1, §2

M14 = settings: Homo sapiens; M14, 10 µM; read-out: Growth Percent
Experimental: as §1, §2

BT-549 = settings: Homo sapiens; BT-549, 10 µM; read-out: Growth Percent
Experimental: as §1, §2

UACC-62 = settings: Homo sapiens; UACC-62, 10 µM; read-out: Growth Percent
Experimental: as §1, §2

786-0 = settings: Homo sapiens; 786-0, 10 µM; read-out: Growth Percent
Experimental: as §1, §2

SK-MEL-28 = settings: Homo sapiens; SK-MEL-28, 10 µM; read-out: Growth Percent
Experimental: as §1, §2

SNB-19 = settings: Homo sapiens; SNB-19, 10 µM; read-out: Growth Percent
Experimental: as §1, §2

OVCAR-8 = settings: Homo sapiens; OVCAR-8, 10 µM; read-out: Growth Percent
Experimental: as §1, §2

UO-31 = settings: Homo sapiens; UO-31, 10 µM; read-out: Growth Percent
Experimental: as §1, §2

K-562 = settings: Homo sapiens, K562; K-562, 10 µM; read-out: Growth Percent
Experimental: as §1, §2

PC-3 = settings: Homo sapiens; PC-3, 10 µM; read-out: Growth Percent
Experimental: as §1, §2

U251 = settings: Homo sapiens, U-251; U251, 10 µM; read-out: Growth Percent
Experimental: as §1, §2

SK-OV-3 = settings: Homo sapiens; SK-OV-3, 10 µM; read-out: Growth Percent
Experimental: as §1, §2

HOP-62 = settings: Homo sapiens; HOP-62, 10 µM; read-out: Growth Percent
Experimental: as §1, §2

SF-268 = settings: Homo sapiens; SF-268, 10 µM; read-out: Growth Percent
Experimental: as §1, §2

KM12 = settings: Homo sapiens; KM12, 10 µM; read-out: Growth Percent
Experimental: as §1, §2

HOP-92 = settings: Homo sapiens; HOP-92, 10 µM; read-out: Growth Percent
Experimental: as §1, §2

RXF 393 = settings: Homo sapiens; RXF 393, 10 µM; read-out: Growth Percent
Experimental: as §1, §2

MDA-MB-231/ATCC = settings: Homo sapiens, read-out: Growth Percent
Experimental: as §1, §2

MOLT-4 = settings: Homo sapiens; MOLT-4, 10 µM; read-out: Growth Percent
Experimental: as §1, §2

Compound | activity at 10 µM (EKVX) [%] | activity at 10 µM (NCI-H460) [%] | activity at 10 µM (MDA-MB-468) [%] | activity at 10 µM (NCI/ADR-RES) [%] | activity at 10 µM (HT29) [%] | activity at 10 µM (SNB-75) [%] | activity at 10 µM (SR) [%] | activity at 10 µM (NCI-H522) [%] | activity at 10 µM (SF-295) [%] | activity at 10 µM (COLO 205) [%] | activity at 10 µM (HCT-15) [%] | activity at 10 µM (SK-MEL-5) [%] | activity at 10 µM (SN12C) [%] | activity at 10 µM (TK-10) [%] | activity at 10 µM (DU-145) [%] | activity at 10 µM (SF-539) [%] | activity at 10 µM (NCI-H23) [%] | activity at 10 µM (SK-MEL-2) [%] | activity at 10 µM (M14) [%] | activity at 10 µM (BT-549) [%] | further results
O=C(/C=C/c1ccc(Br)cc1)c1ccc(-n2cc(CN3CCN(c4cc5c(cc4F)c(=O)c(C(=O)O)cn5C4CC4)CC3)nn2)cc1 [Compound 4d, (E)-7-(4-((1-(4-(3-(4-bromophenyl)acryloyl)phenyl)-1H-1,2,3-triazol-4-yl)methyl)piperazin-1-yl)-1-cyclopropyl-6-fluoro-4-oxo-1,4-dihydroquinoline-3-carboxylic acid] | 80.8 | 85.9 | 72.5 | 85.6 | 99.2 | 85.7 | 21.3 | 88 | 81.9 | 112 | 90.6 | 79.7 | 58.8 | 97.8 | 92.3 | 82.5 | 77.6 | 102 | 88.1 | 92.5 | activity at 10 µM (UACC-62): 72.8%; activity at 10 µM (786-0): 72.2%; activity at 10 µM (SK-MEL-28): 92%; activity at 10 µM (SNB-19): 76.7%; activity at 10 µM (OVCAR-8): 80.7%; activity at 10 µM (UO-31): 65.4%; activity at 10 µM (K-562): 60.7%; activity at 10 µM (PC-3): 84.7%; activity at 10 µM (U251): 68.4%; activity at 10 µM (SK-OV-3): 79%; activity at 10 µM (HOP-62): 85.4%; activity at 10 µM (SF-268): 77.2%; activity at 10 µM (KM12): 87.1%; activity at 10 µM (HOP-92): 88%; activity at 10 µM (RXF 393): 55.7%; activity at 10 µM (MDA-MB-231/ATCC): 66.4%; activity at 10 µM (MOLT-4): 80.4%
Cc1ccc(/C=C/C(=O)c2ccc(-n3cc(CN4CCN(c5cc6c(cc5F)c(=O)c(C(=O)O)cn6C5CC5)CC4)nn3)cc2)cc1 [Compound 4f, (E)-1-cyclopropyl-6-fluoro-4-oxo-7-(4-((1-(4-(3-(p-tolyl)acryloyl)phenyl)-1H-1,2,3-triazol-4-yl)methyl)piperazin-1-yl)-1,4-dihydroquinoline-3-carboxylic acid] | 90.7 | 85.8 | 92.2 | 102 | 91.7 | 93.6 | 16.6 | 78.3 | 87.6 | 107 | 95 | 91.1 | 44.9 | 91.4 | 78.9 | 83 | 85.4 | 97.2 | 87 | 81.3 | activity at 10 µM (UACC-62): 83%; activity at 10 µM (786-0): 76.7%; activity at 10 µM (SK-MEL-28): 107%; activity at 10 µM (SNB-19): 86.9%; activity at 10 µM (OVCAR-8): 79%; activity at 10 µM (UO-31): 65.7%; activity at 10 µM (K-562): 51.5%; activity at 10 µM (PC-3): 82%; activity at 10 µM (U251): 71.2%; activity at 10 µM (SK-OV-3): 78.4%; activity at 10 µM (HOP-62): 87.4%; activity at 10 µM (SF-268): 72.6%; activity at 10 µM (KM12): 88.8%; activity at 10 µM (HOP-92): 84.6%; activity at 10 µM (RXF 393): 88.4%; activity at 10 µM (MDA-MB-231/ATCC): 80.1%; activity at 10 µM (MOLT-4): 67.7%
CN(C)c1ccc(/C=C/C(=O)c2ccc(-n3cc(CN4CCN(c5cc6c(cc5F)c(=O)c(C(=O)O)cn6C5CC5)CC4)nn3)cc2)cc1 [Compound 4h, (E)-1-cyclopropyl-7–(4-((1–(4-(3-(4-(dimethylamino)phenyl)acryloyl)phenyl)-1H-1,2,3-triazol-4-yl)methyl)piperazin-1-yl)-6-fluoro-4-oxo-1,4-dihydroquinoline-3-carboxylic acid] | 96 | 89.7 | 77.1 | 103 | 98.9 | 70.8 | 63.2 | 88.6 | 86.9 | 101 | 97.6 | 86.2 | 67.7 | 104 | 96.3 | 73.6 | 81.5 | 95.5 | 87.4 | 73.7 | activity at 10 µM (UACC-62): 77.6%; activity at 10 µM (786-0): 65%; activity at 10 µM (SK-MEL-28): 100%; activity at 10 µM (SNB-19): 86.4%; activity at 10 µM (OVCAR-8): 62.5%; activity at 10 µM (UO-31): 61.9%; activity at 10 µM (K-562): 86%; activity at 10 µM (PC-3): 89.6%; activity at 10 µM (U251): 73%; activity at 10 µM (SK-OV-3): 84.7%; activity at 10 µM (HOP-62): 81.3%; activity at 10 µM (SF-268): 71.5%; activity at 10 µM (KM12): 84.1%; activity at 10 µM (HOP-92): 76.2%; activity at 10 µM (RXF 393): 70.9%; activity at 10 µM (MDA-MB-231/ATCC): 75.5%; activity at 10 µM (MOLT-4): 86%
O=C(/C=C/c1cccc(Cl)c1)c1ccc(-n2cc(CN3CCN(c4cc5c(cc4F)c(=O)c(C(=O)O)cn5C4CC4)CC3)nn2)cc1 [Compound 4b, (E)-7-(4-((1–(4-(3-(3-chlorophenyl)acryloyl)phenyl)-1H-1,2,3-triazol-4-yl)methyl)piperazin-1-yl)-1-cyclopropyl-6-fluoro-4-oxo-1,4-dihydroquinoline-3-carboxylic acid] | 85 | 66.7 | 64.8 | 94.2 | 53.3 | 89.2 | 14.1 | 83.9 | 80.2 | 106 | 71.7 | 78.7 | 37.6 | 84.9 | 77.5 | 60.1 | 91.4 | 93 | 79 | 90.4 | activity at 10 µM (UACC-62): 61.2%; activity at 10 µM (786-0): 53.9%; activity at 10 µM (SK-MEL-28): 95.8%; activity at 10 µM (SNB-19): 53.8%; activity at 10 µM (OVCAR-8): 42.7%; activity at 10 µM (UO-31): 52.6%; activity at 10 µM (K-562): 40.5%; activity at 10 µM (PC-3): 74%; activity at 10 µM (U251): 34.3%; activity at 10 µM (SK-OV-3): 72.3%; activity at 10 µM (HOP-62): 67.7%; activity at 10 µM (SF-268): 56.4%; activity at 10 µM (KM12): 29.9%; activity at 10 µM (HOP-92): 79.3%; activity at 10 µM (RXF 393): 70.8%; activity at 10 µM (MDA-MB-231/ATCC): 73.6%; activity at 10 µM (MOLT-4): 68.2%
